This passage reports IC50 and viability, T/C results from PubChem BioAssay AID1918944 (Molecular Pharmacology Branch, DTP, NCI, 2023).

Broadly, the IC50 is the concentration that gives 50% inhibition. As a reminder, the viability, T/C is the result in the treated group divided by that in the control group, in per cent.

“And” between values parts separate entries of the source, which are not always exact repeats. Equal entries are not always repeated.

The test system of the experiment is 786-0 complex spheroid viability. Put plainly: Anticancer human tumor 786-0 cell line growth inhibition.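 On all read-outs here: spheroids exposed to agents for seven days before readout.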 Particulars: for viability, T/C: stronger effect = lower value. The procedure, abridged: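 Complex spheroids of tumor cells with HUVEC and human MSCs, exposed to iadademstat combined with other agents. Each agent tested in half-log steps from near clinical Cmax (else 10 microM top), DMSO ≤0.25%.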

Setting [1] is: curve of first compound, second compound 0.1 µM.
The mark [2] stands for this setting: curve of first compound, second compound 0.316 µM.
Setting [3] is: curve of first compound, second compound 1 µM.
Setting [4] is: curve of first compound, second compound 3.16 µM.
Setting [5] is: curve of first compound, second compound 10 µM.
Where [6] appears, read: second compound 0.1 µM, first compound 0.00949 µM.
Where [7] appears, read: second compound 0.1 µM, first compound 0.03 µM.
Where [8] appears, read: second compound 0.1 µM, first compound 0.0949 µM.
Where [9] appears, read: second compound 0.1 µM, first compound 0.3 µM.
Where [10] appears, read: second compound 0.1 µM, first compound 0.949 µM.
[11] abbreviates: second compound 0.1 µM, first compound 3 µM.
Setting [12] is: second compound 0.316 µM, first compound 0.00949 µM.
The mark [13] stands for this setting: second compound 0.316 µM, first compound 0.03 µM.
Where [14] appears, read: second compound 0.316 µM, first compound 0.0949 µM.
The mark [15] stands for this setting: second compound 0.316 µM, first compound 0.3 µM.
[16] abbreviates: second compound 0.316 µM, first compound 0.949 µM.
Setting [17] is: second compound 0.316 µM, first compound 3 µM.
Where [18] appears, read: second compound 1 µM, first compound 0.00949 µM.
Where [19] appears, read: second compound 1 µM, first compound 0.03 µM.
The mark [20] stands for this setting: second compound 1 µM, first compound 0.0949 µM.
Where [21] appears, read: second compound 1 µM, first compound 0.3 µM.
The mark [22] stands for this setting: second compound 1 µM, first compound 0.949 µM.
Setting [23] is: second compound 1 µM, first compound 3 µM.
Setting [24] is: second compound 3.16 µM, first compound 0.00949 µM.
[25] abbreviates: second compound 3.16 µM, first compound 0.03 µM.
Setting [26] is: second compound 3.16 µM, first compound 0.0949 µM.
Setting [27] is: second compound 3.16 µM, first compound 0.3 µM.
Setting [28] is: second compound 3.16 µM, first compound 0.949 µM.
[29] abbreviates: second compound 3.16 µM, first compound 3 µM.
The mark [30] stands for this setting: second compound 10 µM, first compound 0.00949 µM.
The mark [31] stands for this setting: second compound 10 µM, first compound 0.03 µM.
[32] abbreviates: second compound 10 µM, first compound 0.0949 µM.
The mark [33] stands for this setting: second compound 10 µM, first compound 0.3 µM.
The mark [34] stands for this setting: second compound 10 µM, first compound 0.949 µM.
Where [35] appears, read: second compound 10 µM, first compound 3 µM.

With `NS(=O)(=O)OCC1CC(n2ccc3c(NC4CCc5ccccc54)ncnc32)CC1O` (centres undefined) + NC1CC1c1ccc(-c2cccc(O)c2)cc1, the IC50 under setting [1] stood at 190 nM; the IC50 under setting [2] was found to be 178 nM; the IC50 under setting [3] was found to be 168 nM; the IC50 under setting [4] worked out at 175 nM; the IC50 under setting [5] is 165 nM. For the same compound, the viability, T/C reads like this: under setting [6], 113%; under setting [7], 96.6%; under setting [8], 94%; under setting [9], 21%; under setting [10], 9.54%; under setting [11], 13.7%. Besides, the viability, T/C reads like this: under setting [12], 104%; under setting [13], 92.9%; under setting [14], 88.5%; under setting [15], 18.2%; under setting [16], 9.34%; under setting [17], 14.3%. For the same compound, the viability, T/C is 117% under setting [18]; 98.6% under setting [19]; 79.1% under setting [20]; 20.3% under setting [21]; 9.8% under setting [22]; 15.8% under setting [23]. Further, the viability, T/C reads like this: under setting [24], 110%; under setting [25], 88.1%; under setting [26], 83.4%; under setting [27], 20.8%; under setting [28], 10.9%; under setting [29], 16.5%. Further, the viability, T/C was 99.9% under setting [30]; 89% under setting [31]; 76.6% under setting [32]; 21.3% under setting [33]; 13% under setting [34]; 15.4% under setting [35].

For `CC1COCCN1c1cc(C2(S(C)(=N)=O)CC2)nc(-c2ccnc3[nH]ccc23)n1` (centres undefined), the viability, T/C is 101% and 103% (compound 0.0316 µM); 99.8% and 99.9% (compound 0.1 µM); 91.4% and 99% (compound 0.316 µM); 46.4% and 56.3% (compound 1 µM); 24.9% and 32.6% (compound 3.16 µM); 12.3% and 18.9% (compound 10 µM). Also, the IC50 (curve of compound) is 954 nM and 1380 nM.

Turning to `CCN(c1cc(-c2ccc(CN3CCOCC3)cc2)cc(C(=O)NCc2c(C)cc(C)[nH]c2=O)c1C)C1CCOCC1` + NC1CC1c1ccc(-c2cccc(O)c2)cc1, the IC50 under setting [1] was above 3000 nM; the IC50 under setting [2] is above 3000 nM; the IC50 under setting [3] was above 3000 nM; the IC50 under setting [4] is above 3000 nM; the IC50 under setting [5] is above 3000 nM. For the same compound, the viability, T/C is 99.5% under setting [6]; 101% under setting [7]; 98.7% under setting [8]; 94.3% under setting [9]; 95.7% under setting [10]; 96.2% under setting [11]. Also, the viability, T/C reads like this: under setting [12], 104%; under setting [13], 105%; under setting [14], 107%; under setting [15], 103%; under setting [16], 97.6%; under setting [17], 94.8%. In addition, the viability, T/C under setting [18] was 98.8%; the viability, T/C under setting [19] is 101%; the viability, T/C under setting [20] was 99.3%; the viability, T/C under setting [21] is 102%; the viability, T/C under setting [22] is 84.8%; the viability, T/C under setting [23] is 86%. Further, the viability, T/C under setting [24] is 88.6%; the viability, T/C under setting [25] is 97.7%; the viability, T/C under setting [26] is 95.3%; the viability, T/C under setting [27] was 96.8%; the viability, T/C under setting [28] was 84.4%; the viability, T/C under setting [29] was 86.3%. Moreover, the viability, T/C was 87.8% under setting [30]; 87% under setting [31]; 85.5% under setting [32]; 87.3% under setting [33]; 80.4% under setting [34]; 83% under setting [35].

For `CC(C)CC(NC(=O)C(Cc1ccccc1)NC(=O)c1cnccn1)B(O)O` (centres undefined), the viability, T/C (compound 0.000316 µM) was 100% and 106%; the viability, T/C (compound 0.001 µM) is 107% and 108%; the viability, T/C (compound 0.00316 µM) was 32.1% and 53.2%; the viability, T/C (compound 0.01 µM) was 2.29% and 6.77%; the viability, T/C (compound 0.0316 µM) was 0.17% and 1.21%; the viability, T/C (compound 0.1 µM) is 0.2% and 0.37%. Moreover, the IC50 (curve of compound) is 2.38 nM and 3.45 nM.

Turning to `COc1cc(C2c3cc4c(cc3C(OC3OC5COC(C)OC5C(O)C3O)C3COC(=O)C23)OCO4)cc(OC)c1O` (centres undefined) + NC1CC1c1ccc(-c2cccc(O)c2)cc1, the IC50 reads like this: under setting [1], 212 nM; under setting [2], 247 nM; under setting [3], 174 nM; under setting [4], 183 nM; under setting [5], 162 nM. The viability, T/C under setting [6] was 96.6%; the viability, T/C under setting [7] is 88.2%; the viability, T/C under setting [8] is 63.9%; the viability, T/C under setting [9] is 42.5%; the viability, T/C under setting [10] is 26.9%; the viability, T/C under setting [11] is 12.1%. The viability, T/C is, setting by setting: under setting [12], 105%; under setting [13], 95.8%; under setting [14], 66.2%; under setting [15], 47.1%; under setting [16], 25.8%; under setting [17], 9.93%. Besides, the viability, T/C is, setting by setting: under setting [18], 93.1%; under setting [19], 89.4%; under setting [20], 57.9%; under setting [21], 40.2%; under setting [22], 22%; under setting [23], 10.9%. Further, the viability, T/C is, setting by setting: under setting [24], 90.7%; under setting [25], 82.9%; under setting [26], 59.2%; under setting [27], 43.3%; under setting [28], 20.8%; under setting [29], 10.3%. Further, the viability, T/C under setting [30] was 80.6%; the viability, T/C under setting [31] was 76.6%; the viability, T/C under setting [32] was 54.3%; the viability, T/C under setting [33] is 42.5%; the viability, T/C under setting [34] is 22.6%; the viability, T/C under setting [35] was 8.94%.
